Measured values from patent publication US20120202794A1 (priority 2011, published 2012).
Read-outs that look alike come from different tables or passages of the source.

Tests used:
[1] = Cell cytotoxicity assay (MTS), CC90 as reported in Table 1, cell line not stated; type: cell-based; conditions: human; MTS assay; 8 days incubation; cell line not given
Procedure, shortened: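 MTS read-out (490 nm, 2 h dye step) after 8-day exposure at 37° C. Huh7, HepG2, BxPC3 were seeded at 2×10^3 and CEM at 5×10^3 cells/well, with compound serially diluted from 100 μM. CC90 comes from comparison with untreated control wells.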

[2] = test system: HCV Replicon 1b; assay: HCV inhibition assay, HCV replicon 1b (Clone A or ET-lunet cells; RT-PCR or luciferase reporter); type: cell-based; conditions: Hepatitis C virus, 96 h, read-out: Replicon 1b potency EC90
Procedure, shortened: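 Inhibition read either as luciferase signal (ET replicon) or as HCV 5′-NTR RNA by RT-PCR relative to rRNA, % = (1−2^−ΔΔCt)×100, against DMSO controls, giving EC50 and EC90. Cells: Clone A or ET-lunet, seeded 1500 or 3000/well, exposed 4 days at 37 °C, 5% CO2, 0.5% DMSO.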

[3] = HCV replicon 1b, 4 days incubation

| Structure (SMILES) | CC90 at 8 days [1] | EC90 [2, 3] | EC90 [2] |
| --- | --- | --- | --- |
| O=C1N[C@@H](c2ccccc2)CN(C(=O)[C@@H]2C[C@H]2c2ccc(F)cc2)[C@H]1c1cccs1 [Compound 469, (3R,6S)-4-((1R,2R)-2-(4-fluorophenyl)cyclopropanecarbonyl)-6-phenyl-3-(thiophen-2-yl)piperazin-2-one] | > 10000 nM | 1060 nM |  |
| O=C1N[C@@H](c2ccccc2)CN(C(=O)c2cc(-c3ccc(F)cc3)on2)[C@H]1c1cccs1 [Compound 471, (3R,6S)-4-(5-(4-fluorophenyl)isoxazole-3-carbonyl)-6-phenyl-3-(thiophen-2-yl)piperazin-2-one] | > 10000 nM | 570 nM |  |
| O=C1N[C@@H](c2ccccc2)CN(C(=O)c2noc(-c3ccc(F)cc3)n2)[C@H]1c1cccs1 [Compound 472, (3R,6S)-4-(5-(4-fluorophenyl)-1,2,4-oxadiazole-3-carbonyl)-6-phenyl-3-(thiophen-2-yl)piperazin-2-one] | > 10000 nM | 1200 nM |  |
| CC(C)C[C@H]1C(=O)N[C@H](C2CCOCC2)CN1C(=O)c1noc(-c2ccc(F)cc2)n1 [Compound 473, (3S,6R)-4-(5-(4-fluorophenyl)-1,2,4-oxadiazole-3-carbonyl)-3-isobutyl-6-(tetrahydro-2H-pyran-4-yl)piperazin-2-one] | > 10000 nM | > 10000 nM |  |
| CC(C)C[C@H]1C(=O)N[C@@H](C2CCOCC2)CN1C(=O)c1noc(-c2ccc(F)cc2)n1 [Compound 474, (3S,6S)-4-(5-(4-fluorophenyl)-1,2,4-oxadiazole-3-carbonyl)-3-isobutyl-6-(tetrahydro-2H-pyran-4-yl)piperazin-2-one] | > 10000 nM | 350 nM |  |
| CC(C)C[C@H]1C(=O)N[C@H](C2CCOCC2)CN1C(=O)[C@@H]1C[C@H]1c1ccc(F)cc1 [Compound 475, (3S,6R)-4-((1R,2R)-2-(4-fluorophenyl)cyclopropanecarbonyl)-3-isobutyl-6-(tetrahy-dro-2H-pyran-4-yl)piperazin-2-one] | > 10000 nM | > 10000 nM |  |
| CC(C)C[C@H]1C(=O)N[C@@H](C2CCOCC2)CN1C(=O)[C@@H]1C[C@H]1c1ccc(F)cc1 [Compound 476, (3S,6S)-4-((1R,2R)-2-(4-fluoro-phenyl)cyclopropanecarbonyl)-3-isobutyl-6-(tetrahydro-2H-pyran-4-yl)piperazin-2-one] | > 10000 nM | 230 nM |  |
| CC(C)C[C@H]1C(=O)N[C@H](c2ccco2)CN1C(=O)c1cc(-c2ccc(F)cc2)on1 [Compound 483, (3S,6S)-4-(5-(4-fluorophenyl)isoxazole-3-carbonyl)-6-(furan-2-yl)-3-isobutyl-piperazin-2-one] | > 10000 nM | > 10000 nM |  |
| CC(C)C[C@H]1C(=O)N[C@@H](c2ccco2)CN1C(=O)c1cc(-c2ccc(F)cc2)on1 [Compound 484, (3S,6R)-4-(5-(4-fluorophenyl)isoxazole-3-carbonyl)-6-(furan-2-yl)-3-isobutylpiperazin-2-one] | > 10000 nM | 180 nM |  |
| CC(C)C[C@H]1C(=O)N[C@H](c2ccc(Cl)s2)CN1C(=O)c1cc(-c2ccc(F)cc2)on1 [Compound 485, (3S,6S)-6-(5-chlorothiophen-2-yl)-4-(5-(4-fluorophenyl)isoxazole-3-carbonyl)-3-isobutylpiperazin-2-one] | > 10000 nM | > 10000 nM |  |
| CC(C)C[C@H]1C(=O)N[C@@H](c2ccc(Cl)s2)CN1C(=O)c1cc(-c2ccc(F)cc2)on1 [Compound 488, (3S,6R)-6-(5-chlorothiophen-2-yl)-4-(5-(4-fluorophenyl)isoxazole-3-carbonyl)-3-isobutylpiperazin-2-one] | > 10000 nM | 700 nM |  |
| CCC[C@H]1C(=O)N[C@@H](c2cccs2)CN1C(=O)c1cc(-c2ccc(F)cc2)on1 [Compound 491, (3S,6R)-4-(5-(4-fluorophenyl)isoxazole-3-carbonyl)-3-propyl-6-(thiophen-2-yl)piper-azin-2-one] | > 10000 nM | 250 nM |  |
| CCC[C@H]1C(=O)N[C@@H](c2cccs2)CN1C(=O)[C@@H]1C[C@H]1c1ccc(F)cc1 [Compound 495, (3S,6R)-4-((1R,2R)-2-(4-fluorophenyl)cyclopropanecarbonyl)-3-propyl-6-(thiophen-2-yl)piperazin-2-one] | > 10000 nM | 290 nM |  |
| CC(C)C[C@H]1C(=O)N[C@@H](c2ccsc2Cl)CN1C(=O)[C@@H]1C[C@H]1c1ccc(F)cc1 [Compound 500, (3S,6S)-6-(2-chlorothiophen-3-yl)-4-((1R,2R)-2-(4-fluorophenyl)cyclopropane-carbonyl)-3-isobutylpiperazin-2-one] | > 10000 nM | 22 nM |  |
| C=C[C@H]1CN(C(=O)c2cc(-c3ccc(F)cc3)on2)[C@@H](CC(C)C)C(=O)N1 [Compound 506, (3S,6S)-4-(5-(4-fluorophenyl)isoxazole-3-carbonyl)-3-isobutyl-6-vinylpiperazin-2-one] | > 10000 nM | 1050 nM |  |
| CC(C)C[C@H]1C(=O)N[C@@H](C(=O)N(C)C)CN1C(=O)c1cc(-c2ccc(F)cc2)on1 [Compound 507, (2R,5S)-4-(5-(4-fluorophenyl)isoxazole-3-carbonyl)-5-isobutyl-N,N-dimethyl-6-oxopiperazine-2-carboxamide] | > 10000 nM | 840 nM |  |
| CNC(=O)[C@H]1CN(C(=O)c2cc(-c3ccc(F)cc3)on2)[C@@H](CC(C)C)C(=O)N1 [Compound 508, (2R,5S)-4-(5-(4-fluorophenyl)isoxazole-3-carbonyl)-5-isobutyl-N-methyl-6-oxopiperazine-2-carboxamide] | > 10000 nM | > 10000 nM |  |
| CC(C)C[C@H]1C(=O)N[C@@H](c2ncco2)CN1C(=O)c1cc(-c2ccc(F)cc2)on1 [Compound 510, (3S,6R)-4-(5-(4-fluorophenyl)isoxazole-3-carbonyl)-3-isobutyl-6-(oxazol-2-yl)piperazin-2-one] | > 10000 nM | > 10000 nM |  |
| CC(C)C[C@H]1C(=O)N[C@@H](c2ccccc2)CN1C(C)c1cc(-c2ccc(F)cc2)on1 (stereo partly drawn) [Compound 511, (3S,6S)-4-(1-(5-(4-fluorophenyl)isoxazol-3-yl)ethyl)-3-isobutyl-6-phenylpiperazin-2-one] | > 10000 nM | 450 nM |  |
| CC(C)C[C@H]1C(=O)N[C@@H](c2cnco2)CN1C(=O)c1cc(-c2ccc(F)cc2)on1 [Compound 516, (3S,6R)-4-(5-(4-fluorophenyl)isoxazole-3-carbonyl)-3-isobutyl-6-(oxazol-5-yl)piperazin-2-one] | > 10000 nM |  | 110 nM |
| CC(C)C[C@H]1C(=O)N[C@@H](c2cnco2)CN1C(=O)[C@@H]1C[C@H]1c1ccccc1 [Compound 517, (3S,6R)-3-isobutyl-6-(oxazol-5-yl)-4-((1R,2R)-2-phenylcyclopropane-carbonyl)piperazin-2-one] | > 10000 nM | 190 nM |  |
| CC(C)C[C@H]1C(=O)N[C@@H](c2cnco2)CN1C(=O)c1noc(-c2ccc(F)cc2)n1 [Compound 518, (3S,6R)-4-(5-(4-fluorophenyl)-1,2,4-oxadiazole-3-carbonyl)-3-isobutyl-6-(oxazol-5-yl)piperazin-2-one] | > 10000 nM | 58 nM |  |
